# Values quoted from earlier work in patent US7872044B2, “Inhibitors of chymase” (Janssen Pharmaceutica NV, priority 2006, dated 2011).
# Tested on: angiotensin II activity in human vascular extracts
# Settings: background statement
compound,measurement,value
NCCCC[C@H](N[C@@H](CCc1ccccc1)C(=O)O)C(=O)N1CCC[C@H]1C(=O)O [lisinopril],angiotensin II activity inhibited,about 8%
